Measurements published in patent US11345701B1, “KRAS mutant protein inhibitors” (Jacobio Pharmaceuticals Co., Ltd., priority 2021, dated 2022).

Assays:
[1] = system: NCI-H358 cells expressing KRAS G12C mutant protein; experiment: Phospho-ERK1/2(THR202/TYR204) HTRF assay; assay type: cell-based; conditions: Homo sapiens, NCI-H358, 2 h, 2 hours incubation, read-out: p-ERK IC50
Experimental: The NCI-H358 cells in culture medium were seeded in 96-well plates at a concentration of 40,000 cells/well and then put in a 37° C./5% CO2 cell incubator to incubate overnight. […] After 2 hours incubation in a 37° C./5% CO2 cell incubator, the assay medium in 96-well plates was removed, then 50 μL of 1× blocking reagent-supplemented lysis buffer (Cisbio) was added and the plates were incubated at 25° C. for 45 min with shaking. 10 μL of cell lysates from the 96-well plates were transferred to a 384-well plate (Greiner) containing 2.5 μL/well HTRF® pre-mixed antibodies (Cisbio 64AERPEH). Incubate 4 hours at 25° C. and then read HTRF signals on Tecan Spark multimode microplate reader. The data were analyzed using a 4-parameter logistic model to calculate IC50 values.

[2] = target: HIS-KRAS(G12C) (Homo sapiens (Human), UniProt P01116, G12C); experiment: SOS1 catalyzed nucleotide exchange assay (TR-FRET); assay type: biochemical; conditions: GDP-loaded HIS-KRAS(G12C), 1 hour pre-incubation, TR-FRET
Experimental: TR-FRET signals were then read on Tecan Spark multimode microplate reader. […] TR-FRET ratios for each individual wells were calculated by equation: TR-FRET ratio=(Signal F515/Signal F486)*10000. Then the data were analyzed using a 4-parameter logistic model to calculate IC50 values.

[3] = Mouse pharmacokinetic study; assay type: in vivo, Balb/c mouse
Experimental: The purpose of this study was to evaluate the pharmacokinetic properties of compounds in Balb/c mouse (♀) following single dose administration. The day before administration, mice were fasted overnight and free access to water. Six mice were needed for each compound and the six mice were divided into two groups (n=3/group), group A and group B. Mice in group A were treated with a single 3 mg/kg dose of compound (iv). Mice in group B were treated with a single 10 mg/kg dose of compound (po). For each mouse in group A, blood samples were collected at pre-dose, and at the time point of 0.083, 0.25, 0.5, 1, 2, 4, 6, 8 and 24 h post-dose. For each mouse in group B, blood samples were collected at pre-dose, and at the time point of 0.25, 0.5, 1, 2, 3, 4, 6, 8 and 24 h post-dose. Blood samples were placed on ice until centrifugation to obtain plasma samples. The plasma samples were stored at −80° C. until analysis. The concentration of compound in plasma samples was determined using a LC-MS/MS method.

HIS-KRAS(G12C), sequence (P01116 other isoform, or with tags, fused parts or gaps G12C): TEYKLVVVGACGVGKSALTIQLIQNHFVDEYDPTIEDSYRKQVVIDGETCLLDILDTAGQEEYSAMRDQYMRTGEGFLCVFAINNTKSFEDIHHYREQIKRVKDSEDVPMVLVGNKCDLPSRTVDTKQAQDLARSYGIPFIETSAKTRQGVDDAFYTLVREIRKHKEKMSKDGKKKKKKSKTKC

Compound	IC50 [1] [nM]	IC50 [2] [nM]	Pharmacokinetic properties in words ([3]; mouse model, 3 mg/kg iv and 10 mg/kg po)	clearance ([3]; plasma, Balb/c mouse (female), 3 mg/kg, iv) [mL/min/kg]	Vd ([3]; plasma, Balb/c mouse (female), 3 mg/kg, iv, read-out: Vss) [L/kg]	AUC(0-t) ([3]; plasma, Balb/c mouse (female), 10 mg/kg, po, read-out: AUC0-24 h) [ng·h/mL]	Cmax ([3]; plasma, Balb/c mouse (female), 10 mg/kg, po, read-out: Cmax) [ng/mL]	bioavailability ([3]; plasma, Balb/c mouse (female), 10 mg/kg, po, read-out: Oral BA (F %)) [%]
C=CC(=O)N1CCN(c2nc(=O)n(-c3c(C)ccnc3C(C)C)c3nc(-c4c(F)c(F)c(F)c(N)c4Cl)c(F)cc23)[C@@H](C)C1 [Compound 1, 4-((S)-4-acryloyl-2-methylpiperazin-1-yl)-7-(3-amino-2-chloro-4,5,6-trifluorophenyl)-6-fluoro-1-(2-isopropyl-4-methylpyridin-3-yl)pyrido[2,3-d]pyrimidin-2(1H)-one]	70.1	7.25						
C=CC(=O)N1CCN(c2nc(=O)n(-c3c(C)ccnc3C(C)C)c3nc(-c4c(N)c(F)c(F)c(F)c4F)c(F)cc23)[C@@H](C)C1 [Compound 2, 4-((S)-4-acryloyl-2-methylpiperazin-1-yl)-7-(2-amino-3,4,5,6-tetrafluorophenyl)-6-fluoro-1-(2-isopropyl-4-methylpyridin-3-yl)pyrido[2,3-d]pyrimidin-2(1H)-one]	30.7	2.04	good pharmacokinetic properties	65.2	2.31	1150	1440	44.7
C=CC(=O)N1[C@H](C)CN(c2nc(=O)n(-c3c(C)ccnc3C(C)C)c3nc(-c4c(N)c(F)c(F)c(F)c4F)c(F)cc23)C[C@@H]1C [Compound 5, 4-((3S,5R)-4-acryloyl-3,5-dimethylpiperazin-1-yl)-7-(2-amino-3,4,5,6-tetrafluorophenyl)-6-fluoro-1-(2-isopropyl-4-methylpyridin-3-yl)pyrido[2,3-d]pyrimidin-2(1H)-one]	48.8	5.41						
